{"source": "patent US20230082968A1", "about": "“EXOGENOUS NITRIC OXIDE FOR IMPROVED SUSCEPTIBILITY AND LOWERED ANTIBIOTIC RESISTANCE IN RESISTANT RESPIRATORY BACTERIA” (The University of North Carolina at Chapel Hill, priority 2020, published 2023)", "key": {"ATCC BCC": {"test_system": "ATCC BCC", "assay": "Nitric oxide pretreatment with planktonic bacteria", "format": "cell-based, Burkholderia cepacia complex", "description": "(§1) After exposure, wells were serially diluted in sterile MilliQ water and spiral plated on TSA. Viability was assessed by colony counting."}, "PAK [1]": {"test_system": "PAK", "assay": "Nitric oxide pretreatment with planktonic bacteria", "format": "cell-based, Pseudomonas aeruginosa", "settings": "antibiotic 2 µg/mL, NO-pretreatment 25% MIC 4 h", "description": "as §1"}, "ATCC MRSA [2]": {"test_system": "ATCC MRSA", "assay": "Serial passaging resistance assay", "format": "cell-based, Methicillin-resistant S. aureus", "description": "(§2) Bacteria at a final concentration of 10^6 CFU/mL in TSB were incubated with serial dilutions of COS/NO and/or tobramycin for 24 h. Growth was assessed by measuring absorbance at 600 nm. The wells that had the highest concentration of test agent and an OD600 corresponding to more than 10^8 CFU/mL were diluted to 10^6 cfu/mL in TSB and incubated with fresh solutions of COS/NO or tobramycin for 24 h. A single passage was defined as one exposure, incubation, and subsequent dilution. Bacteria were passaged for up to 70 days."}, "ATCC MRSA [3]": {"test_system": "ATCC MRSA", "assay": "Nitric oxide pretreatment with planktonic bacteria", "format": "cell-based, Methicillin-resistant S. aureus", "description": "as §1"}, "P. aeruginosa biofilms": {"test_system": "P. aeruginosa biofilms", "assay": "Biofilm pretreatment with nitric oxide, all tested biofilms", "format": "cell-based", "settings": "all tested P. aeruginosa biofilms incl. tobramycin-resistant strains, COS/NO at 25% MBEC for 4 h", "description": "(§3) Bacteria were cultured to a concentration of 10^8 CFU/mL in TSB and diluted to 10^6 CFU/mL in 200 µL TSB in a 96 well plate. Plates were incubated with shaking for 3 days until a non-surface attached viscous aggregate formed that was easily separated from growth medium. Biofilms (100 µL) were removed, gently injected into PBS (200 µL) to remove loosely adhered planktonic cells, and added to a sterile 96 well plate. To the wells, PBS or test agent dissolved in PBS (100 µL) was added and incubated with shaking for 24 h. The biofilm (100 µL) was removed from the well plate, added to 900 µL sterile MilliQ water, and disrupted with pipetting and vortexing. Disrupted biofilms were serially diluted and spiral plated on TSA. Viability was assessed with colony counting. The minimum biofilm eradication concentration (MBEC) was defined as the lowest concentration of test agent required to reduce viability by 5-log (i.e., 10^8 to 10^3 CFU/mL).\n(§4) The biofilm was then removed from its 96 well plate, added to a new 96 well plate containing tobramycin dissolved in PBS (100 µL), and incubated for 20 h. The biofilm was disrupted in 900 µL sterile MilliQ water with pipetting and vortexing, serially diluted, and spiral plated on TSA. Viability was assessed with colony counting."}, "AR 542": {"test_system": "AR 542", "assay": "Nitric oxide pretreatment with planktonic bacteria", "format": "cell-based, Klebsiella pneumoniae", "description": "as §1"}, "PAK biofilm": {"test_system": "PAK biofilm", "assay": "Biofilm pretreatment with nitric oxide", "format": "cell-based, Pseudomonas aeruginosa", "description": "as §3, §4"}, "AR 229 biofilm": {"test_system": "AR 229 biofilm", "assay": "Biofilm pretreatment with nitric oxide", "format": "cell-based, P. aeruginosa", "settings": "tobramycin 2 µg/mL, NO-pretreatment 4 h", "description": "as §3, §4"}, "AR 239 biofilm": {"test_system": "AR 239 biofilm", "assay": "Biofilm pretreatment with nitric oxide", "format": "cell-based, P. aeruginosa", "settings": "tobramycin 5000 µg/mL, NO-pretreatment 4 h", "description": "as §3, §4"}, "AR 230 biofilm": {"test_system": "AR 230 biofilm", "assay": "Biofilm pretreatment with nitric oxide", "format": "cell-based, P. aeruginosa", "settings": "tobramycin 64 µg/mL, NO-pretreatment 4 h", "description": "as §3, §4"}, "AR 237 biofilm": {"test_system": "AR 237 biofilm", "assay": "Biofilm pretreatment with nitric oxide", "format": "cell-based, P. aeruginosa", "settings": "tobramycin 1 µg/mL, NO-pretreatment 4 h", "description": "as §3, §4"}, "ATCC S.aureus": {"test_system": "ATCC S.aureus", "assay": "Nitric oxide pretreatment with planktonic bacteria", "format": "cell-based, Staphylococcus aureus", "description": "as §1"}, "AR 230": {"test_system": "AR 230", "assay": "Nitric oxide pretreatment with planktonic bacteria", "format": "cell-based, P. aeruginosa", "settings": "AR 230, antibiotic 2000 µg/mL, NO-pretreatment 25% MIC 4 h", "description": "as §1"}, "AR 237": {"test_system": "AR 237", "assay": "Nitric oxide pretreatment with planktonic bacteria", "format": "cell-based, P. aeruginosa", "settings": "AR 237, antibiotic 0.625 µg/mL, NO-pretreatment 25% MIC 4 h", "description": "as §1"}, "AR 229": {"test_system": "AR 229", "assay": "Nitric oxide pretreatment with planktonic bacteria", "format": "cell-based, P. aeruginosa", "settings": "AR 229, antibiotic 0.625 µg/mL, NO-pretreatment 25% MIC 4 h", "description": "as §1"}, "AR 239": {"test_system": "AR 239", "assay": "Nitric oxide pretreatment with planktonic bacteria", "format": "cell-based, P. aeruginosa", "settings": "AR 239, antibiotic 2000 µg/mL, NO-pretreatment 25% MIC 4 h", "description": "as §1"}, "PAK [4]": {"test_system": "PAK", "assay": "Serial passaging resistance assay", "format": "cell-based, Pseudomonas aeruginosa", "description": "as §2"}, "[5]": {"settings": "antibiotic 4000 µg/mL, NO-pretreatment 25% MIC 4 h"}, "[6]": {"settings": "AR 542, antibiotic 500 µg/mL, NO-pretreatment 25% MIC 4 h"}, "[7]": {"settings": "tobramycin 16 µg/mL, NO-pretreatment 4 h"}}, "note": "Entries after “also recorded” stand apart in the source; their conditions may differ.", "data": [{"smiles": "NC[C@H]1O[C@H](O[C@H]2[C@H](O)[C@@H](O[C@H]3O[C@H](CO)[C@@H](O)[C@H](N)[C@H]3O)[C@H](N)C[C@@H]2N)[C@H](N)C[C@@H]1O", "note": "[Tobramycin]", "values": [{"measurement": "Log Difference in bacteria viability with vs without NO-pretreatment", "setting": "ATCC BCC; ATCC BCC, antibiotic […], NO-pretreatment 25% MIC 4 h", "result": 5.23, "unit": "log"}, {"measurement": "tobramycin-susceptibility with the addition of NO", "setting": "ATCC BCC; B. cepacia complex, NO-pretreatment", "result": "significant improvement"}, {"measurement": "Classification", "setting": "PAK [1]", "result": "Synergistic"}, {"measurement": "Log Difference in bacteria viability with vs without NO-pretreatment", "setting": "PAK [1]", "result": 3.00, "unit": "log"}, {"measurement": "MICn", "setting": "ATCC MRSA [2]; ATCC MRSA, after n = 10 passages", "result": 16000, "unit": "µg/mL"}, {"measurement": "development of tobramycin-resistance", "setting": "ATCC MRSA [2]; MRSA, concomitant delivery with COS/NO at 25% of its MIC", "result": "slowing or prevention"}, {"measurement": "change of tobramycin MIC on parallel exposures", "setting": "ATCC MRSA [2]; MRSA, tobramycin alone, serial passages", "result": "increases"}, {"measurement": "MIC", "setting": "ATCC MRSA [2]; Staphylococcus aureus, MRSA, read-out: MIC0", "result": 2000, "unit": "µg/mL"}, {"measurement": "tobramycin-susceptibility with the addition of NO", "setting": "ATCC MRSA [3]; NO-pretreatment", "result": "significant improvement"}, {"measurement": "Classification", "setting": "ATCC MRSA [3]; [5]", "result": "Synergistic"}, {"measurement": "Log Difference in bacteria viability with vs without NO-pretreatment", "setting": "ATCC MRSA [3]; [5]", "result": 4.09, "unit": "log"}, {"measurement": "tobramycin susceptibility of biofilms after NO-pretreatment", "setting": "P. aeruginosa biofilms", "result": "significantly more susceptible; also recorded: improved"}, {"measurement": "Classification", "setting": "AR 542; [6]", "result": "Synergistic"}, {"measurement": "Log Difference in bacteria viability with vs without NO-pretreatment", "setting": "AR 542; [6]", "result": 2.29, "unit": "log"}, {"measurement": "tobramycin-susceptibility with the addition of NO", "setting": "AR 542; K. pneumoniae AR 542, NO-pretreatment", "result": "significant improvement"}, {"measurement": "changes in tobramycin-susceptibility of biofilm", "setting": "PAK biofilm; NO-pretreatment lasting less than 4 h", "result": "Minimal changes"}, {"measurement": "Classification", "setting": "PAK biofilm; [7]", "result": "Synergistic"}, {"measurement": "Log Difference in biofilm viability with vs without NO-pretreatment", "setting": "PAK biofilm; [7]", "result": 4.71, "unit": "log"}, {"measurement": "Classification", "setting": "AR 229 biofilm", "result": "Synergistic"}, {"measurement": "Log Difference in biofilm viability with vs without NO-pretreatment", "setting": "AR 229 biofilm", "result": 4.39, "unit": "log"}, {"measurement": "Classification", "setting": "AR 239 biofilm", "result": "Synergistic"}, {"measurement": "Log Difference in biofilm viability with vs without NO-pretreatment", "setting": "AR 239 biofilm", "result": 4.90, "unit": "log"}, {"measurement": "Classification", "setting": "AR 230 biofilm", "result": "Synergistic"}, {"measurement": "Log Difference in biofilm viability with vs without NO-pretreatment", "setting": "AR 230 biofilm", "result": 5.15, "unit": "log"}, {"measurement": "Classification", "setting": "AR 237 biofilm", "result": "Synergistic"}, {"measurement": "Log Difference in biofilm viability with vs without NO-pretreatment", "setting": "AR 237 biofilm", "result": 4.85, "unit": "log"}, {"measurement": "tobramycin-susceptibility with the addition of NO", "setting": "ATCC S.aureus; ATCC S. aureus, NO-pretreatment", "result": "significant improvement"}, {"measurement": "Log Difference in bacteria viability with vs without NO-pretreatment", "setting": "ATCC S.aureus; ATCC S.aureus, antibiotic […], NO-pretreatment 25% MIC 4 h", "result": 4.88, "unit": "log"}, {"measurement": "Classification", "setting": "AR 230", "result": "Synergistic"}, {"measurement": "Log Difference in bacteria viability with vs without NO-pretreatment", "setting": "AR 230", "result": 3.54, "unit": "log"}, {"measurement": "Classification", "setting": "AR 237", "result": "Synergistic"}, {"measurement": "Log Difference in bacteria viability with vs without NO-pretreatment", "setting": "AR 237", "result": 3.70, "unit": "log"}, {"measurement": "Classification", "setting": "AR 229", "result": "Synergistic"}, {"measurement": "Log Difference in bacteria viability with vs without NO-pretreatment", "setting": "AR 229", "result": 4.08, "unit": "log"}, {"measurement": "Classification", "setting": "AR 239", "result": "Synergistic"}, {"measurement": "Log Difference in bacteria viability with vs without NO-pretreatment", "setting": "AR 239", "result": 2.27, "unit": "log"}, {"measurement": "development of tobramycin-resistance", "setting": "PAK [4]; P. aeruginosa, concomitant delivery with COS/NO at 25% of its MIC", "result": "slowing or prevention"}, {"measurement": "change of tobramycin MIC on parallel exposures", "setting": "PAK [4]; P. aeruginosa, tobramycin alone, serial passages", "result": "increases"}, {"measurement": "MICn", "setting": "PAK [4]; PAK, after n = 10 passages", "result": 16, "unit": "µg/mL"}, {"measurement": "MIC", "setting": "PAK [4]; Pseudomonas aeruginosa, read-out: MIC0", "result": 2, "unit": "µg/mL"}]}]}
